# Measured values published in US9914722B2, “Compounds for treating spinal muscular atrophy” (PTC Therapeutics Inc., priority 2012, dated 2018).
# “Also recorded” adds a separate entry of the source.
# Key:
# [1] = system: SMN2 full length and Δ7 mRNA; experiment: Endogenous SMN2 mRNA RT-qPCR splicing assay in cultured cells; assay type: cell-based, human; conditions: 24 hr, FIG. 4
# Description: Endogenous SMN2 mRNA RT-qPCR Splicing Assay in Cultured Cells
# The reverse transcription-quantitative PCR-based (RT-qPCR) assay is used to quantify the levels of the SMN2 full length and Δ7 mRNA in primary cells and cell lines containing the SMN2 gene treated with a test compound.
# Protocol. GM03813 SMA patient cells (5,000 cells/well) are seeded in 200 μL, of cell culture medium (DMEM plus 10% FBS) in 96-well flat-bottom plates and the plate is immediately swirled to ensure proper dispersal of cells, forming an even monolayer of cells. Cells are allowed to attach for at least 4-6 hrs. Test compounds are serially diluted 3.16-fold in 100% DMSO to generate a 7-point concentration curve. A solution of test compound (1 μL, 200× in DMSO) is added to each test well and 1 μL, DMSO is added to each control well. The plate is incubated for 24 hrs in a cell culture incubator (37° C., 5% CO2, 100% relative humidity). The cells are then lysed in Cells-To-Ct lysis buffer and the lysate is stored at −80° C.
# SMN2-specific spliced products and GAPDH mRNA are identified using the following primers and probes in Table 5. […] Since the SMA patient cells used in Example 3 contain only the SMN2 gene, RT-qPCR can quantify only SMN2 full-length and Δ7 mRNA. […]
# The increase of SMN2 FL and decrease in SMN2 Δ7 mRNA relative to those in cells treated with vehicle control are determined from real-time PCR data using a modified ΔΔCt method (as described in Livak and Schmittgen, Methods, 2001, 25:402-8). The amplification efficiency (E) is calculated from the slope of the amplification curve for SMN2 FL, SMN2 Δ7, and GAPDH individually. The abundance of SMN2 FL, SMN2 Δ7 and GAPDH mRNA are then calculated as (1+E)^−Ct, where Ct is the threshold value for each amplicon. […]
# [2] = system: gems (Smn-dependent nuclear speckles) in SMA patient fibroblast cells; experiment: Gems count (Smn-dependent nuclear speckle count) assay; assay type: cell-based, human; conditions: Type 1 SMA patient fibroblasts, 48 hour, fluorescence microscopy, relative to DMSO, FIG. 7
# Description: Gems Count (Smn-Dependent Nuclear Speckle Count) Assay
# The level of Smn protein directly correlates with the amount of nuclear foci, also known as gems, produced upon staining the cell with a fluorescently labeled anti-Smn antibody (Liu and Dreyfuss, EMBO J., 1996, 15:3555). Gems are multi-protein complexes whose formation is nucleated by the Smn protein and the gems count assay is used to evaluate the level of Smn protein in the cell. As described herein, the gems count assay is used to quantify the level of Smn protein in SMA patient fibroblast cells treated with a test compound.
# Protocol: Cells are thawed and incubated in DMEM-10% FBS for 72 hours, then trypsinized, counted and resuspended to 100,000 cells/mL in DMEM-10% FBS. The cell suspension (2 mL) is plated in a 6-well cell culture plate with a sterile cover slip and incubated for 3 to 5 hours. Test compounds are serially diluted 3.16-fold in 100% DMSO to generate a 7-point dilution curve. […]
# Cell culture medium is aspirated from the wells containing cover slips and gently washed three times with cold PBS. […] The number of gems is counted per ≧150 nuclei and % activation is calculated using DMSO and 10 nM bortezomib as controls. For each test compound, the cells are examined at all wavelengths to identify test compounds with inherent fluorescence.
# [3] = GM03813 Type 1 SMA patient fibroblasts, increasing concentrations
compound,measurement,setting,value
"COc1ccc(-c2cc(=O)c3cc(N4CCN[C@@H](C)C4)ccc3o2)cc1F [Cpd 38, 2-(3-fluoro-4-methoxyphenyl)-6-[(3S)-3-methylpiperazin-1-yl]-4H-chromen-4-one]",SMN2 FL mRNA relative to vehicle,[1]; [3],progressively more SMN2 FL mRNA
same,SMN2 Δ7 mRNA relative to vehicle,[1]; [3],less SMN2 Δ7 mRNA
same,SMN2 alternative splicing,"[1]; Type 1 SMA patient fibroblasts, rising concentrations",correction of SMN2 alternative splicing
same,nuclear speckle counts (gems),[2],progressively more gems relative to cells treated with DMSO; also recorded: increase in nuclear speckle counts (gems)
